Measurements as given in patent publication US20250002475A1 (EPICS THERAPEUTICS, priority 2023, published 2025).

Legend:
Kasumi-1 cells = experiment: Kasumi-1 cellular viability assay (ATP-Lite, 72 h); assay type: cell-based; conditions: Homo sapiens, ATP-Lite luminescence, % viability relative to DMSO
Summary of the method: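 Viability was read by ATP-Lite One Step luminescence after 72 h compound treatment at 37 °C/5% CO2, normalised to DMSO control, with IC50 fitted from concentration-response. Cells were Kasumi-1 (AML FAB M2) at 15000 per well in RPMI-1640/10% FBS, 0.1% DMSO final.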

Caov-3 cells = experiment: Caov-3 cellular viability assay (ATP-Lite, 72 h); assay type: cell-based; conditions: Homo sapiens, ATP-Lite luminescence, % viability relative to DMSO
Summary of the method: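 IC50 values come from concentration-response fits of luminescent ATP content (ATP-Lite One Step), normalised as % viability versus DMSO. Compound exposure was 72 h at 37 °C in RPMI-1640/10% FBS with 0.1% final DMSO. Wells held 10000 cells each.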

[1] = biological target: T1, recombinant METTL3/METTL14 complex (Homo sapiens, UniProt Q86U44); experiment: METTL3/14 Scintillation Proximity Assay (SPA), RNA methyltransferase activity; assay type: biochemical; conditions: 5.31 nM METTL3/14 complex, 250 nM RNA substrate, 1 μM 3H-SAM, 90 min; for compounds marked * best of the two separated forms
T1 construct: purchased Active Motif 311970; host or cells: Sf9 cells
T1 sequence (Q86U44 whole entry): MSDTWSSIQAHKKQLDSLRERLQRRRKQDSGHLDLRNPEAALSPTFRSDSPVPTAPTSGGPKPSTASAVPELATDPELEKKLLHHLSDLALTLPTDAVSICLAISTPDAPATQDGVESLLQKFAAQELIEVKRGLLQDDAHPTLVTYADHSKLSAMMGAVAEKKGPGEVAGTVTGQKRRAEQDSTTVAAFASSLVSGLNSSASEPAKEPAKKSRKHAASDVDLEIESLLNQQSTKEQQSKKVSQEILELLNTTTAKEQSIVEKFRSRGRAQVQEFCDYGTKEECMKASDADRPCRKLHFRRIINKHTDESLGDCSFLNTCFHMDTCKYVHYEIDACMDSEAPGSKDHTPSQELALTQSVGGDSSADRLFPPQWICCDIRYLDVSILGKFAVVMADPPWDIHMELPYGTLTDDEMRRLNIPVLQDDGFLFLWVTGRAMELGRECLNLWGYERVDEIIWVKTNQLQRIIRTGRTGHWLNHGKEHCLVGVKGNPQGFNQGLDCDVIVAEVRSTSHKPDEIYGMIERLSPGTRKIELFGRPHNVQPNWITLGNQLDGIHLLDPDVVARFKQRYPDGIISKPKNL
T1 sequence (Q9HCE5 whole entry partner): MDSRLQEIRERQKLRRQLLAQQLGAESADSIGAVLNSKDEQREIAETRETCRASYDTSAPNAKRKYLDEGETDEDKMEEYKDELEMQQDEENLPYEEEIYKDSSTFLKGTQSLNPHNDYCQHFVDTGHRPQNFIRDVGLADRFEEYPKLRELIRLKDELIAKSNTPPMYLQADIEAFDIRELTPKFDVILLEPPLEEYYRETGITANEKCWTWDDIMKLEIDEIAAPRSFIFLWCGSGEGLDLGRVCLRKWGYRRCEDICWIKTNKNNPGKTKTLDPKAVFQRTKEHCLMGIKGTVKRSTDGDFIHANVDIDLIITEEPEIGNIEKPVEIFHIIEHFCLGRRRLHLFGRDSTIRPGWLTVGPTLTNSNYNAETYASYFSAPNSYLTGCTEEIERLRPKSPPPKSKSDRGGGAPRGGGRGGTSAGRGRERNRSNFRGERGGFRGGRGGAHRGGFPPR

IC50 [1] [nM] | SMILES | IC50 (Kasumi-1 cells) [nM] | IC50 (Caov-3 cells) [nM]
≤ 50 | c1ncc(N2CCCC2)cc1-c1cn(C2(c3ccc(N4CCC[C@@H](NCC5CC5)C4)nc3)COC2)nn1 [Compound 223, (R)-N-(cyclopropylmethyl)-1-(5-(3-(4-(5-(pyrrolidin-1-yl)pyridin-3-yl)-1H-1,2,3-triazol-1-yl)oxetan-3-yl)pyridin-2-yl)piperidin-3-amine] | ≤ 500 | ≤ 500
≤ 50 | CC(c1nnc(-c2cncc(N3CCCC3)n2)s1)n1ccc(N2CCC[C@@H](NCC3CC3)C2)cc1=O (stereo partly drawn) [Compound 228, 4-((R)-3-((cyclopropylmethyl)amino)piperidin-1-yl)-1-(1-(5-(6-(pyrrolidin-1-yl)pyrazin-2-yl)-1,3,4-thiadiazol-2-yl)ethyl)pyridin-2(1H)-one] | ≤ 500 | ≤ 500
≤ 50 | CC(c1nnc(-c2cncc(N(C)C)n2)s1)n1ccc(N2CCC[C@@H](NCC3CC3)C2)cc1=O (stereo partly drawn) [Compound 231, 4-((R)-3-((cyclopropylmethyl)amino)piperidin-1-yl)-1-(1-(5-(6-(dimethylamino)pyrazin-2-yl)-1,3,4-thiadiazol-2-yl)ethyl)pyridin-2(1H)-one] | ≤ 500 | ≤ 500
≤ 50 | CC(c1cnc(-c2cncc(N3CCCC3)n2)s1)n1ccc(N2CCC[C@@H](NCC3CC3)C2)cc1=O (stereo partly drawn) [Compound 233, 4-((R)-3-((cyclopropylmethyl)amino)piperidin-1-yl)-1-(1-(2-(6-(pyrrolidin-1-yl)pyrazin-2-yl)thiazol-5-yl)ethyl)pyridin-2(1H)-one] | ≤ 500 | ≤ 500
≤ 50 | CC(n1cc(-c2cncc(N3CCC4(CC4)C3)n2)nn1)n1ccc(N2CCC[C@@H](NCC3CC3)C2)cc1=O (stereo partly drawn) [Compound 235, 1-(1-(4-(6-(5-azaspiro[2.4]heptan-5-yl)pyrazin-2-yl)-1H-1,2,3-triazol-1-yl)ethyl)-4-((R)-3-((cyclopropylmethyl)amino)piperidin-1-yl)pyridin-2(1H)-one] | ≤ 500 | ≤ 500
≤ 50 | O=C(Nc1cc(=O)n2ccccc2n1)C1(c2ccc(N3CCC[C@@H](NCC4CCC4)C3)cn2)COC1 [Compound 239, (R)-3-(5-(3-((cyclobutylmethyl)amino)piperidin-1-yl)pyridin-2-yl)-N-(4-oxo-4H-pyrido[1,2-a]pyrimidin-2-yl)oxetane-3-carboxamide] | ≤ 500 | ≤ 500
≤ 50 | C[C@@H]1CCN(c2cncc(-c3cn(C4(c5ccc(N6CCC[C@@H](NCC7CC7)C6)cn5)COC4)nn3)n2)C1 [Compound 244, (R)-N-(cyclopropylmethyl)-1-(6-(3-(4-(6-((R)-3-methylpyrrolidin-1-yl)pyrazin-2-yl)-1H-1,2,3-triazol-1-yl)oxetan-3-yl)pyridin-3-yl)piperidin-3-amine] | ≤ 500 | ≤ 500
≤ 50 | O=C(Nc1cncc(N2CCCC2)n1)C1(c2ccc(N3CCC[C@@H](NCC4CC4)C3)cn2)COC1 [Compound 248, (R)-3-(5-(3-((cyclopropylmethyl)amino)piperidin-1-yl)pyridin-2-yl)-N-(6-(pyrrolidin-1-yl)pyrazin-2-yl)oxetane-3-carboxamide] | ≤ 500 | ≤ 500
≤ 50 | COc1cncc(-c2cn(C3(c4ccc(N5CCC[C@@H](NCC6CC6)C5)cn4)COC3)nn2)c1 [Compound 249, (R)-N-(cyclopropylmethyl)-1-(6-(3-(4-(5-methoxypyridin-3-yl)-1H-1,2,3-triazol-1-yl)oxetan-3-yl)pyridin-3-yl)piperidin-3-amine] | ≤ 500 | ≤ 500
≤ 50 | c1cc(C2(n3cnc(-c4cncc(N5CCCC5)n4)c3)COC2)ncc1N1CCC[C@@H](NCC2CC2)C1 [Compound 250, (R)-N-(cyclopropylmethyl)-1-(6-(3-(4-(6-(pyrrolidin-1-yl)pyrazin-2-yl)-1H-imidazol-1-yl)oxetan-3-yl)pyridin-3-yl)piperidin-3-amine] | ≤ 500 | ≤ 500
≤ 50 | c1ncc(C2CC2)cc1-c1cn(C2(c3ccc(N4CCC[C@@H](NCC5CC5)C4)cn3)COC2)nn1 [Compound 256, (R)-N-(cyclopropylmethyl)-1-(6-(3-(4-(5-cyclopropylpyridin-3-yl)-1H-1,2,3-triazol-1-yl)oxetan-3-yl)pyridin-3-yl)piperidin-3-amine] | ≤ 500 | ≤ 500
≤ 50 | CC(c1ccc(N2CCC[C@@H](NCC3CCC3)C2)nn1)n1cc(-c2cncc(N3CCCC3)c2)nn1 (stereo partly drawn) [Compound 257, (3R)—N-(cyclobutylmethyl)-1-(6-(1-(4-(5-(pyrrolidin-1-yl)pyridin-3-yl)-1H-1,2,3-triazol-1-yl)ethyl)pyridazin-3-yl)piperidin-3-amine] | ≤ 500 | ≤ 500
≤ 50 | O=C(Nc1cncc(N2CCCC2)n1)C1(c2ccc(N3CCC[C@@H](NCC4CCC4)C3)cn2)COC1 [Compound 262, (R)-3-(5-(3-((cyclobutylmethyl)amino)piperidin-1-yl)pyridin-2-yl)-N-(6-(pyrrolidin-1-yl)pyrazin-2-yl)oxetane-3-carboxamide] | ≤ 500 | ≤ 500
≤ 50 | O=C(Nc1cc(=O)n2ccccc2n1)C1(c2ccc(N3CCC[C@@H](NCC45CC(F)(C4)C5)C3)cn2)COC1 [Compound 263, (R)-3-(5-(3-(((3-fluorobicyclo[1.1.1]pentan-1-yl)methyl)amino)piperidin-1-yl)pyridin-2-yl)-N-(4-oxo-4H-pyrido[1,2-a]pyrimidin-2-yl)oxetane-3-carboxamide] | ≤ 500 | ≤ 500
≤ 50 | COc1cncc(-c2cn(C3(c4ccc(N5CCC[C@@H](NCC6CCC6)C5)cn4)COC3)cn2)c1 [Compound 267, (R)-N-(cyclobutylmethyl)-1-(6-(3-(4-(5-methoxypyridin-3-yl)-1H-imidazol-1-yl)oxetan-3-yl)pyridin-3-yl)piperidin-3-amine] | 500 to 5000 | 500 to 5000
≤ 50 | O=C(Nc1cncc(C2CCCC2)n1)C1(c2ccc(N3CCC[C@@H](NCC4CCC4)C3)cn2)COC1 [Compound 268, (R)-3-(5-(3-((cyclobutylmethyl)amino)piperidin-1-yl)pyridin-2-yl)-N-(6-cyclopentylpyrazin-2-yl)oxetane-3-carboxamide] | 500 to 5000 | 500 to 5000
≤ 50 | O=C(Nc1cncc(N2CCCC2)n1)C1(c2ccc(N3CCC[C@@H](NCC45CC(F)(C4)C5)C3)cn2)COC1 [Compound 269, (R)-3-(5-(3-(((3-fluorobicyclo[1.1.1]pentan-1-yl)methyl)amino)piperidin-1-yl)pyridin-2-yl)-N-(6-(pyrrolidin-1-yl)pyrazin-2-yl)oxetane-3-carboxamide] | ≤ 500 | ≤ 500
≤ 50 | O=C(Nc1cncc(N2CC3CC3C2)n1)C1(c2ccc(N3CCC[C@@H](NCC4CCC4)C3)cn2)COC1 (stereo partly drawn) [Compound 270, N-(6-(3-azabicyclo[3.1.0]hexan-3-yl)pyrazin-2-yl)-3-(5-((R)-3-((cyclobutylmethyl)amino)piperidin-1-yl)pyridin-2-yl)oxetane-3-carboxamide] | ≤ 500 | ≤ 500
≤ 50 | CN(CC1CCC1)[C@@H]1CCCN(c2ccc(C3(C(=O)Nc4cc(=O)n5ccccc5n4)COC3)nc2)C1 [Compound 272, (R)-3-(5-(3-((cyclobutylmethyl)(methyl)amino)piperidin-1-yl)pyridin-2-yl)-N-(4-oxo-4H-pyrido[1,2-a]pyrimidin-2-yl)oxetane-3-carboxamide] | 500 to 5000 | 500 to 5000
≤ 50 | COc1cncc(-c2cn(C(C)c3ccc(N4CCC[C@@H](NCC5CCC5)C4)cn3)cn2)c1 (stereo partly drawn) [Compound 276, (3R)—N-(cyclobutylmethyl)-1-(6-(1-(4-(5-methoxypyridin-3-yl)-1H-imidazol-1-yl)ethyl)pyridin-3-yl)piperidin-3-amine] | 500 to 5000 | ≤ 500
≤ 50 | O=C(Nc1cc(=O)n2ccccc2n1)C1(c2ccc(N3CCC[C@@H](NCC4CCC4)C3)cc2)COC1 [Compound 278, (R)-3-(4-(3-((cyclobutylmethyl)amino)piperidin-1-yl)phenyl)-N-(4-oxo-4H-pyrido[1,2-a]pyrimidin-2-yl)oxetane-3-carboxamide] | ≤ 500 | ≤ 500
≤ 50 | CC(C(=O)Nc1cncc(N2CCCC2)n1)c1ccc(N2CCC[C@@H](NCC3CCC3)C2)nn1 (stereo partly drawn) [Compound 279, 2-(6-((R)-3-((cyclobutylmethyl)amino)piperidin-1-yl)pyridazin-3-yl)-N-(6-(pyrrolidin-1-yl)pyrazin-2-yl)propanamide] | 500 to 5000 | 500 to 5000
≤ 50 | CC(c1ccc(N2CCC[C@@H](NCC3CCC3)C2)cn1)n1cc(-c2cncc(N3CCCC3)n2)nn1 (stereo partly drawn) [Compound 280, (3R)—N-(cyclobutylmethyl)-1-(6-(1-(4-(6-(pyrrolidin-1-yl)pyrazin-2-yl)-1H-1,2,3-triazol-1-yl)ethyl)pyridin-3-yl)piperidin-3-amine] | ≤ 500 | ≤ 500
≤ 50 | O=C(Nc1cncc(N2CCCC2)n1)C1(c2ccc(N3CCC[C@@H](NCC4CCC4)C3)cc2)COC1 [Compound 281, (R)-3-(4-(3-((cyclobutylmethyl)amino)piperidin-1-yl)phenyl)-N-(6-(pyrrolidin-1-yl)pyrazin-2-yl)oxetane-3-carboxamide] | ≤ 500 | ≤ 500
